{
  "source": "patent US8618074B2",
  "about": "“GPCR enhanced neuroprotection to treat brain injury” (Board of Regents of the University of Texas System, priority 2007, dated 2013)",
  "key": {"[1]": {"tested_on": "RB-induced cerebral infarcts in the mouse cortex", "assay": "RB-induced photothrombotic cerebral infarct size, small animal imaging with PE-Cy5.5 anti-CD40", "type": "in vivo", "protocol": "These set of experiments utilizes small animal imaging studies to non-invasively study the impact of G-protein stimulated IP3-gated Ca^2+ release on astrocyte neuroprotection during the aging process. In brief, focal cerebral infarcts are induced using photothrombosis as described in EXAMPLE 8. However, irradiation of the brain with green light is carried out through the cranium with a 10× objective. […] We observe the size of the lesion in subsequent days by taking advantage of an inflammatory response at the lesion, which we label with a fluorescently conjugated antibody to CD40 (PE-Cy5.5-anti-mouse-CD40). […] It has also been reported that the PE-Cy5.5 CD40 antibody localized to activated endothelium at the brain lesion and to blood derived cells of the mononuclear lineage. We have successfully used this approach to image RB-induced brain inflammation in mice with high sensitivity and specificity. […] To carry out these experiments, 3 mice were imaged. On the day of the initial photothrombosis, one mouse was injected with Rose Bengal, one with Rose Bengal and 2-MeSADP and the third mouse was injected only with saline. […] For one set of mice, we re-imaged the mice at day 17 post occlusion and found CD40 labeling undetectable in the 2-MeSADP injected mouse. […] Finally, in one mouse, we also injected a fluorescent dye (IR-820) on day 3 that is a strong indicator of blood brain barrier dysfunction. Accumulation of this dye at the site of a lesion is consistent with a permeant (i.e., compromised) blood brain barrier. As noted above small animal imaging has been successfully employed to progressively follow and measure the size of Rose Bengal (RB)-induced brain infarcts in live mice for over 2 weeks."}, "astrocytes": {"tested_on": "astrocytes", "assay": "Astrocyte survival under t-buOOH oxidative stress in the absence of neurons", "type": "cell-based, mouse", "protocol": "To determine whether P2Y-R enhanced mitochondrial metabolism in astrocytes affected neuronal resistance to oxidative stress, we prepared co-cultures of neurons and astrocytes using corning transwell-clear permeable supports, which physically separates the two cell-types by ˜1 mm (# 07-200-170, Fisher scientific). Primary cultures of astrocytes were directly prepared in transwell supports until they were ˜70% confluent. Mouse cortical neurons were then cultured onto glass bottom mattek plates and maintained in B-27/Neurobasal Medium to control glia contamination to less than 0.5% (Invitrogen). After four days, co-cultures were treated with t-buOOH (100 μM) for 4 hours with and without pre-stimulation of ATP (2 μM, 10 minutes). Cells were then stained with the DNA intercalating dye Hoechst 33342 (10 μg/ml, Molecular Probes, #H-3570) and calcein AM (2 μM, Molecular Probes, #C3100). […] We then tested the neuroprotective affects of isoform specific purinergic ligands 2-MeSADP(P2Y1-R) and UTP(P2Y2-R). FIG. 6A depicts histogram plots of the percentage of neurons alive when cocultured with young or old astrocytes. FIG. 6B depicts histogram plots of the percentage of neurons alive pretreated with either 2-MeSADP (2 μM) or UTP (50 μM) for 10 min. A ten-minute pre-treatment of astrocytes with either 2-MeSADP (2 μM), or UTP (50 μM) was equally protective against oxidative stress induced cell death. The % neurons alive after 4.5 hours of t-buOOH treatment was 51±4% (n=1664 neurons, pooled from 4 experiments) for untreated controls, 70±2% (n=2541 neurons, pooled from 4 experiments) for 2-MeSADP and 71±3% (n=1189 neurons, pooled from 4 experiments) for UTP treated co-cultures. […] The % astrocytes alive after 4.5 hours of t-buOOH treatment, in the absence of neurons, was 60±4% (n=294 cells) for control, 77±4% (n=294) for 2-MeSADP and 79±3% (n=333) for UTP treated astrocytes.\nIt should be noted that stimulation of neuroprotective response in astrocytes is not restricted to signaling through P2Y receptors. For example we have shown that administration of the membrane permeable IP3 analog, IP3BM, is capable of protecting astrocytes from oxidative damage. Thus, it appears possible that any stimulus capable of evoking IP3-mediated calcium release in astrocytes is equally suitable for application in the present treatment methods. To test this possibility, astrocyte cultures subjected to oxidative stress were treated with either 2-MeSADP, or the metabotropic glutamate receptor agonist (1 S, 3 R)-1-aminocyclopentane-1,3-dicarboxylic acid (ACPD), or were left untreated.\nTo directly examine the role of IP3 gated Ca^2+ release in P2Y-R enhanced astrocyte protection, we used a membrane permeant butyryloxymethyl ester of IP3 (IP3-BM). Cultures of astrocytes were exposed to IP3-BM and Ca^2+ levels were assessed using 2-photon imaging of Fura 2. Ca^2+ increases in response to IP3-BM application were easily detected, but they occurred over a much slower time course than those initiated by ATP treatment. This was not unexpected because of the slow process of IP3-BM movement across the lipid bilayer as well as the time needed to cleave the ester and accumulate IP3 in the cell. Because of the slower time course, we pretreated astrocytes for 20 minutes prior to exposing them to the oxidant stress t-BuOOH. […] The protective effect of IP3-BM treatment was blocked by the IP3R inhibitor, XeC. […]"}},
  "data": [
    {"smiles": "CSc1nc(N)c2ncn([C@@H]3O[C@H](COP(=O)(O)OP(=O)(O)O)[C@@H](O)[C@H]3O)c2n1", "note": "[2-MeSADP]", "values": [
      {"measurement": "size of the cerebral infarct", "setting": "[1]; 2-MeSADP introduced 24 hours later", "value": "reduced"},
      {"measurement": "size of the cerebral infarct", "setting": "[1]; 2-MeSADP present during the initial photothrombosis (day 0)", "value": "reduced"},
      {"measurement": "size of the lesion", "setting": "[1]; day 3 after cerebral infarction, co-injected with Rose Bengal, versus Rose Bengal or saline alone", "value": "significantly smaller"},
      {"measurement": "CD40 labeling", "setting": "[1]; day 17 post occlusion", "value": "undetectable"},
      {"measurement": "% astrocytes alive", "setting": "astrocytes; absence of neurons, 4.5 hours of t-buOOH, 2-MeSADP or UTP", "value": "77±4", "unit": "%"},
      {"measurement": "astrocyte resistance to oxidative stress", "setting": "astrocytes; astrocyte cultures subjected to oxidative stress, versus untreated", "value": "enhanced"}
    ]}
  ]
}
